Data as given in the supplement of paper PMC10307832.

Key:
Assay in all cases: relative viability (nuclei count vs DMSO), 5 days (fraction); higher = more cells survive
[1] = tested on: HOP-62
In short: (§1)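 Relative viability was taken as the ratio of nuclei in treated wells to nuclei in vehicle wells. Lung cancer cell lines in 1536-well plates received compounds by pin tool one day after seeding, either one drug alone or a fixed anchor-drug dose plus five library-drug doses (not always all listed) in √10 steps. Nuclei were counted on 4× images after 5 days of treatment, and values are medians of duplicate plates.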

[2] = tested on: NCI-H2405
In short: as §1

[3] = tested on: NCI-H647
In short: as §1

[4] = tested on: 201T
In short: as §1

[5] = tested on: LK-2
In short: as §1

[6] = tested on: COR-L23
In short: as §1

[7] = tested on: NCI-H460
In short: as §1

[8] = tested on: EMC-BAC-2
In short: as §1

[9] = tested on: EKVX
In short: as §1

[10] = tested on: NCI-H1915
In short: as §1

[11] = tested on: NCI-H1734
In short: as §1

[12] = tested on: SK-MES-1
In short: as §1

[13] = tested on: PC-14
In short: as §1

[14] = tested on: NCI-H1993
In short: as §1

[15] = tested on: A-427
In short: as §1

[16] = tested on: BEN
In short: as §1

[17] = tested on: HCC-15
In short: as §1

[18] = tested on: HCC-78
In short: as §1

[19] = tested on: HCC-366
In short: as §1

[20] = tested on: COR-L 105
In short: as §1

Cc1csc(=NC2CCCCC2)n1/N=C/c1ccc(O)c(O)c1O [MIM1] + CC1(C)CCC(c2ccc(Cl)cc2)=C(CN2CCN(c3ccc(C(=O)NS(=O)(=O)c4ccc(N[C@H](CCN5CCOCC5)CSc5ccccc5)c(S(=O)(=O)C(F)(F)F)c4)cc3)CC2)C1 [Navitoclax] (partner 0.5 µM)
relative viability ([1]; first compound 0.2 µM): 1.11 | relative viability ([1]; first compound 0.6325 µM): 1.11 | relative viability ([1]; first compound 2 µM): 0.525 | relative viability ([1]; first compound 6.325 µM): 0.86 | relative viability ([1]; first compound 20 µM): 0.559 | relative viability ([2]; first compound 0.2 µM): 0.946 | relative viability ([2]; first compound 0.6325 µM): 0.999 | relative viability ([2]; first compound 2 µM): 0.884 | relative viability ([2]; first compound 6.325 µM): 0.798 | relative viability ([2]; first compound 20 µM): 0.35 | relative viability ([3]; first compound 0.2 µM): 1.2 | relative viability ([3]; first compound 0.6325 µM): 0.989 | relative viability ([3]; first compound 2 µM): 0.742 | relative viability ([3]; first compound 6.325 µM): 0.809 | relative viability ([3]; first compound 20 µM): 0.617 | relative viability ([4]; first compound 0.2 µM): 1.2 | relative viability ([4]; first compound 0.6325 µM): 1.21 | relative viability ([4]; first compound 2 µM): 1.24 | relative viability ([4]; first compound 6.325 µM): 1.19 | relative viability ([4]; first compound 20 µM): 1.26 | relative viability ([5]; first compound 0.2 µM): 0.924 | relative viability ([5]; first compound 0.6325 µM): 0.847 | relative viability ([5]; first compound 2 µM): 0.657 | relative viability ([5]; first compound 6.325 µM): 1.09 | relative viability ([5]; first compound 20 µM): 0.209 | relative viability ([6]; first compound 0.2 µM): 0.966 | relative viability ([6]; first compound 0.6325 µM): 1.08 | relative viability ([6]; first compound 2 µM): 0.997 | relative viability ([6]; first compound 6.325 µM): 0.774 | relative viability ([6]; first compound 20 µM): 0.515 | relative viability ([7]; first compound 0.2 µM): 1.16 | relative viability ([7]; first compound 0.6325 µM): 1.14 | relative viability ([7]; first compound 2 µM): 0.772 | relative viability ([7]; first compound 6.325 µM): 0.416 | relative viability ([7]; first compound 20 µM): 0.0332 | relative viability ([8]; first compound 0.2 µM): 1.11 | relative viability ([8]; first compound 0.6325 µM): 1.13 | relative viability ([8]; first compound 2 µM): 1.27 | relative viability ([8]; first compound 6.325 µM): 1.05 | relative viability ([8]; first compound 20 µM): 0.274 | relative viability ([9]; first compound 0.2 µM): 0.922 | relative viability ([9]; first compound 0.6325 µM): 1.07 | relative viability ([9]; first compound 2 µM): 0.965 | relative viability ([9]; first compound 6.325 µM): 0.761 | relative viability ([9]; first compound 20 µM): 0.293 | relative viability ([10]; first compound 0.2 µM): 0.791 | relative viability ([10]; first compound 0.6325 µM): 0.696 | relative viability ([10]; first compound 2 µM): 0.781 | relative viability ([10]; first compound 6.325 µM): 0.62 | relative viability ([10]; first compound 20 µM): 0.656 | relative viability ([11]; first compound 0.2 µM): 0.807 | relative viability ([11]; first compound 0.6325 µM): 0.908 | relative viability ([11]; first compound 2 µM): 0.783 | relative viability ([11]; first compound 6.325 µM): 0.467 | relative viability ([11]; first compound 20 µM): 0.202 | relative viability ([12]; first compound 0.2 µM): 1.29 | relative viability ([12]; first compound 0.6325 µM): 1.26 | relative viability ([12]; first compound 2 µM): 1.28 | relative viability ([12]; first compound 6.325 µM): 0.939 | relative viability ([12]; first compound 20 µM): 0.795 | relative viability ([13]; first compound 0.2 µM): 1.02 | relative viability ([13]; first compound 0.6325 µM): 1.03 | relative viability ([13]; first compound 2 µM): 0.988 | relative viability ([13]; first compound 6.325 µM): 0.894 | relative viability ([13]; first compound 20 µM): 0.133 | relative viability ([14]; first compound 0.2 µM): 0.911 | relative viability ([14]; first compound 0.6325 µM): 0.951 | relative viability ([14]; first compound 2 µM): 0.854 | relative viability ([14]; first compound 6.325 µM): 0.822 | relative viability ([14]; first compound 20 µM): 0.425 | relative viability ([15]; first compound 0.2 µM): 0.972 | relative viability ([15]; first compound 0.6325 µM): 1.02 | relative viability ([15]; first compound 2 µM): 0.981 | relative viability ([15]; first compound 6.325 µM): 0.986 | relative viability ([15]; first compound 20 µM): 0.555 | relative viability ([16]; first compound 0.2 µM): 0.0709 | relative viability ([16]; first compound 0.6325 µM): 0.0746 | relative viability ([16]; first compound 2 µM): 0.0631 | relative viability ([16]; first compound 6.325 µM): 0.0911 | relative viability ([16]; first compound 20 µM): 0.0543 | relative viability ([17]; first compound 0.2 µM): 0.682 | relative viability ([17]; first compound 0.6325 µM): 0.693 | relative viability ([17]; first compound 2 µM): 0.689 | relative viability ([17]; first compound 6.325 µM): 0.42 | relative viability ([17]; first compound 20 µM): 0.382 | relative viability ([18]; first compound 0.2 µM): 0.899 | relative viability ([18]; first compound 0.6325 µM): 0.731 | relative viability ([18]; first compound 2 µM): 0.668 | relative viability ([18]; first compound 6.325 µM): 0.562 | relative viability ([18]; first compound 20 µM): 0.739 | relative viability ([19]; first compound 0.2 µM): 1.06 | relative viability ([19]; first compound 0.6325 µM): 0.943 | relative viability ([19]; first compound 2 µM): 0.809 | relative viability ([19]; first compound 6.325 µM): 1 | relative viability ([19]; first compound 20 µM): 0.0645 | relative viability ([20]; first compound 0.2 µM): 0.78 | relative viability ([20]; first compound 0.6325 µM): 0.8 | relative viability ([20]; first compound 2 µM): 0.732 | relative viability ([20]; first compound 6.325 µM): 0.628 | relative viability ([20]; first compound 20 µM): 0.54
